Measurements: article PMC6036094 (International Journal of Medical Sciences, 2018)
Read-outs that look alike come from different tables or passages of the source.

Type: in vivo, Male Wistar rats
Details: for Concentration in kidneys / Concentration in small intestine / Kidney-to-plasma concentration ratio / Skin tissue-to-plasma concentration ratio / Small intestine-to-plasma concentration ratio / Concentration in skin tissue: mean ± SD; for concentration at 1 h / concentration at 8 h / concentration at 24 h: male, Wistar, rat, po
[1] = 1 to 24 h after oral administration

| SMILES | Skin tissue-to-plasma concentration ratio (1 h after oral administration) | Skin tissue-to-plasma concentration ratio (24 h after oral administration) | concentration at 1 h (kidneys) [ng/g] | concentration at 8 h (kidneys) [ng/g] | concentration at 1 h (small intestine) [ng/g] | Time course of kidney-to-plasma concentration ratio [1] | concentration at 24 h (kidneys) [ng/g] | concentration at 1 h (skin tissue) [ng/g] | concentration at 8 h (skin tissue) [ng/g] | concentration at 8 h (small intestine) [ng/g] | further results |
| --- | --- | --- | --- | --- | --- | --- | --- | --- | --- | --- | --- |
| CCOc1ccc(Cc2cc([C@@H]3S[C@H](CO)[C@@H](O)[C@H](O)[C@H]3O)c(OC)cc2C)cc1 [Luseogliflozin, luseogliflozin] |  |  | 94.9 ± 74.3 | 80.1 ± 51.7 | 251 ± 178 |  |  |  |  |  |  |
| OC[C@H]1O[C@@H](c2ccc(F)c(Cc3cc4ccccc4s3)c2)[C@H](O)[C@@H](O)[C@@H]1O [Ipragliflozin, ipragliflozin] | 0.45±0.20 | 5.82±3.66 | 1420 ± 405 | 1090 ± 456 | 730 ± 377 | tended to increase | 301 ± 86.9 | 152 ± 53.4 | 168 ± 28.7 | 348 ± 105 | Time course of skin tissue-to-plasma concentration ratio [1]: increased in a time-dependent manner; Skin tissue-to-plasma concentration ratio (1 h after oral administration, listed as ipragliflozin): 0.45 ± 0.20; Skin tissue-to-plasma concentration ratio (24 h after oral administration, listed as ipragliflozin): 5.82 ± 3.66; concentration at 24 h (skin tissue, 1 mg/kg): 90.6 ± 38.9 ng/g |
| CCOc1ccc(Cc2cc([C@@H]3O[C@H](CO)[C@@H](O)[C@H](O)[C@H]3O)ccc2Cl)cc1 [Dapagliflozin, dapagliflozin] |  |  | 1030 ± 521 | 531 ± 191 | 37.9 ± 10.3 |  | 170 ± 40.2 | 42.6 ± 24.7 | 13 ± 5 | 19.7 ± 6.7 |  |

More lines, main results first:

| Skin tissue-to-plasma concentration ratio (1 h after oral administration) | Skin tissue-to-plasma concentration ratio (24 h after oral administration) | concentration at 1 h (kidneys) [ng/g] | concentration at 8 h (kidneys) [ng/g] | concentration at 1 h (small intestine) [ng/g] | Time course of kidney-to-plasma concentration ratio [1] | concentration at 24 h (kidneys) [ng/g] | concentration at 1 h (skin tissue) [ng/g] | concentration at 8 h (skin tissue) [ng/g] | concentration at 8 h (small intestine) [ng/g] | SMILES | further results |
| --- | --- | --- | --- | --- | --- | --- | --- | --- | --- | --- | --- |
| 0.18±0.18 | 0.26±0.20 |  |  |  |  |  |  |  |  | Cc1ccc([C@@H]2O[C@H](CO)[C@@H](O)[C@H](O)[C@H]2O)cc1Cc1ccc(-c2ccc(F)cc2)s1 [Canagliflozin, canagliflozin] | Concentration in kidneys (1 h after oral administration): 802.7 ± 269.2 ng/g; Concentration in small intestine (1 h after oral administration): 2925.2 ± 1074.2 ng/g; Kidney-to-plasma concentration ratio (1 h after oral administration): 3.69±2.84; Small intestine-to-plasma concentration ratio (1 h after oral administration): 12.93±9.88; Concentration in kidneys (8 h after oral administration): 1014.1 ± 306.0 ng/g; Concentration in skin tissue (8 h after oral administration): 82.6 ± 22.9 ng/g; Concentration in small intestine (8 h after oral administration): 440.1 ± 117.2 ng/g; Kidney-to-plasma concentration ratio (8 h after oral administration): 2.11±0.54; Skin tissue-to-plasma concentration ratio (8 h after oral administration): 0.17±0.03; Small intestine-to-plasma concentration ratio (8 h after oral administration): 0.92±0.20; Concentration in kidneys (24 h after oral administration): 636.2 ± 222.5 ng/g; Concentration in skin tissue (24 h after oral administration): 20.1 ± 11.6 ng/g; Concentration in small intestine (24 h after oral administration): 325.9 ± 218.0 ng/g; Kidney-to-plasma concentration ratio (24 h after oral administration): 7.55±2.62; Small intestine-to-plasma concentration ratio (24 h after oral administration): 4.05±2.83 |
|  |  | 848 ± 116 | 492 ± 101 | 1360 ± 513 | increased time-dependently | 201 ± 42.9 | 103 ± 29.2 | 27.1 ± 3.2 | 250 ± 114 | CCc1ccc(Cc2ccc3c(c2)[C@]2(OC3)O[C@H](CO)[C@@H](O)[C@H](O)[C@H]2O)cc1 [Tofogliflozin, tofogliflozin] |  |
